Data from the Kinase Knowledgebase extract (Sharma et al. 2016).

These compounds were tested against MAPK14 (UniProt Q16539) (assay: Inhibition of MAPK14 Kinase Activity).
MAPK14, sequence (Q16539 whole entry, looked up): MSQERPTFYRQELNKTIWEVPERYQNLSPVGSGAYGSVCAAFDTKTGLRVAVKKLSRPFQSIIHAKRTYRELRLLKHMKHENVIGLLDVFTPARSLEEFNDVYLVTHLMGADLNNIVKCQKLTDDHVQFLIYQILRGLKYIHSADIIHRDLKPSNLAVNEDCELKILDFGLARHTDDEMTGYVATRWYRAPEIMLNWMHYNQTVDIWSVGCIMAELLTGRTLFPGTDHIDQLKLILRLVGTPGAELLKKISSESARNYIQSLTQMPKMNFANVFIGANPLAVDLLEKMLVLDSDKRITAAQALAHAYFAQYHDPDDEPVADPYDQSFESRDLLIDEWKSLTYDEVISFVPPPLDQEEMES

| Structure (SMILES) | IC50 |
| --- | --- |
| NC(=O)N(Cc1c(F)cccc1F)c1ccc(CO)c(-c2ccccc2Cl)n1 | > 100 µM |
| COc1ccccc1-c1cccc(N(Cc2ccccc2F)C(N)=O)n1 | > 100 µM |
| NC(=O)N(Cc1ccccc1F)c1ccc(CO)c(-c2ccccc2Cl)n1 | 1 µM |
| NC(=O)N(Cc1c(Cl)cccc1Cl)c1cccc(-c2ccccc2Cl)n1 | > 100 µM |
| Cc1cc(F)ccc1-c1cccc(N(Cc2c(Cl)cccc2Cl)C(N)=O)n1 | 2.15 µM |
| Cc1ccccc1-c1cccc(N(Cc2cccc(F)c2)C(N)=O)n1 | 0.751 µM |
| NC(=O)N(Cc1ccc(Cl)cc1Cl)c1cccc(-c2ccc(Cl)cc2)n1 | 100 µM |
| Cc1ccccc1-c1cccc(N(Cc2ccccc2Cl)C(N)=O)n1 | 0.873 µM |
| NC(=O)N(Cc1ccccc1F)c1cccc(-c2ccccc2Cl)n1 | 0.961 µM |
| Cc1cc(F)ccc1-c1nc(N(Cc2c(Cl)cccc2Cl)C(N)=O)ccc1CO | 100 µM |
| NC(=O)N(Cc1ccc(F)cc1)c1cccc(-c2ccccc2Cl)n1 | 1.13 µM |
| NC(=O)N(Cc1c(Cl)cccc1Cl)c1cccc(-c2c(F)cccc2F)n1 | 12.6 µM |
| NC(=O)N(Cc1ccccc1Cl)c1cccc(-c2cc(F)ccc2F)n1 | 35.5 µM |
| Cc1ccccc1-c1cccc(N(Cc2c(Cl)cccc2Cl)C(N)=O)n1 | 8.91 µM |
| Cc1ccccc1-c1cccc(N(Cc2ccccc2F)C(N)=O)n1 | 0.888 µM |
| NC(=O)N(Cc1c(F)cccc1F)c1ccc(CO)c(-c2ccc(F)cc2F)n1 | 1.58 µM |
| COc1ccc(-c2cccc(N(Cc3ccccc3F)C(N)=O)n2)cc1 | > 100 µM |
| Cc1cc(F)ccc1-c1cccc(N(Cc2cccc(F)c2)C(N)=O)n1 | 1.25 µM |
| Cc1ccccc1-c1cccc(N(CCc2ccccc2)C(N)=O)n1 | 0.978 µM |

| Structure (SMILES) | IC50 |
| --- | --- |
| NC(=O)N(Cc1cccc(F)c1)c1cccc(-c2ccccc2Cl)n1 | 1.12 µM |
| Cc1cc(F)ccc1-c1cccc(N(Cc2c(F)cccc2F)C(N)=O)n1 | 2.81 µM |
| NC(=O)N(Cc1ccccc1Cl)c1cccc(-c2ccc(Cl)cc2)n1 | > 100 µM |
| NC(=O)N(Cc1ccccc1Cl)c1cccc(-c2ccc(F)cc2)n1 | > 100 µM |
| Cc1ccccc1-c1cccc(N(Cc2c(F)cccc2F)C(N)=O)n1 | 3.16 µM |
| NC(=O)N(Cc1ccccc1F)c1cccc(-c2ccc(F)cc2)n1 | > 100 µM |
| Cc1cc(F)ccc1-c1cccc(N(Cc2ccccc2Cl)C(N)=O)n1 | > 100 µM |
| COc1ccccc1-c1cccc(N(Cc2ccccc2Cl)C(N)=O)n1 | > 100 µM |
| NC(=O)N(Cc1ccccc1Cl)c1cccc(-c2ccccc2F)n1 | > 100 µM |
| NC(=O)N(Cc1ccc(Cl)cc1Cl)c1cccc(-c2ccccc2Cl)n1 | 25.1 µM |
| Cc1ccccc1-c1nc(N(Cc2c(Cl)cccc2Cl)C(N)=O)ccc1CO | > 100 µM |
| NC(=O)N(Cc1ccccc1Cl)c1cccc(-c2cccc(F)c2)n1 | 79.4 µM |
| NC(=O)N(Cc1c(Cl)cccc1Cl)c1ccc(CO)c(-c2ccccc2Cl)n1 | > 100 µM |
| Cc1cc(F)ccc1-c1nc(N(Cc2c(F)cccc2F)C(N)=O)ccc1CO | 2.2 µM |
| Cc1cc(C)cc(-c2cccc(N(Cc3ccccc3Cl)C(N)=O)n2)c1 | > 100 µM |
| NC(=O)N(Cc1ccccc1)c1cccc(-c2ccccc2Cl)n1 | 2.8 µM |
| NC(=O)N(Cc1ccccc1Cl)c1cccc(-c2ccccc2Cl)n1 | 0.9 µM |
| NC(=O)N(Cc1ccccc1F)c1cccc(-c2ccc(Cl)cc2)n1 | > 100 µM |
